Experimental data from US6706663B2, “Herbicidal 3-heterocyclic substituted benzisothiazole and benzisoxazole compounds” (Wyeth, priority 2000, dated 2004).

What was measured:
[1] = test system: CYPIR (Cyperus iria); assay: Flooded paddy, preemergence weed control; format: in vivo; conditions: rated 3-4 weeks after treatment, 0-9 rating scale
Procedure, shortened: (§1)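 Greenhouse paddy test, preemergence. Seeds planted in the top 0.5 cm of silt loam soil, which remained flooded at 1.5–3 cm depth. Scored 0-9 by visual comparison with control.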

[2] = test system: SAGPY (Sagittaria pygmaea); assay: Flooded paddy, preemergence weed control; format: in vivo, L.; conditions: rated 3-4 weeks after treatment, 0-9 rating scale
Procedure, shortened: as §1

[3] = test system: GLXMAW (Soybean, Williams); assay: Preemergence herbicidal evaluation; format: in vivo, Glycine max, (L.) Merr. cv Williams; conditions: preemergence, rated 4-5 weeks after treatment
[4] = test system: ECHORC (Echinochloa oryzoides); assay: Flooded paddy, postemergence weed control; format: in vivo, Echinochloa oryzoides (Ard.) Fritsch.; conditions: postemergence weeds, rated 3-4 weeks after treatment
Procedure, shortened: (§2)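 Weeds 3–5 cm tall and rice at 1.5–2.5 leaf stage in containers flooded 1.5–3 cm deep; compounds in 50/50 v/v aqueous/acetone injected into flood water at about 0.0320–0.2500 kg/ha. Greenhouse-held; visual 0–9 rating versus untreated control after three to four weeks.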

[5] = test system: MOOVA (Monochoria vaginalis); assay: Flooded paddy, postemergence weed control; format: in vivo, Presl.; conditions: postemergence weeds, rated 3-4 weeks after treatment
Procedure, shortened: as §2

[6] = test system: ZEAMX (Corn, Field); assay: Postemergence herbicidal evaluation; format: in vivo, Zea mays, L.
Procedure, shortened: (§3)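 Seedlings grown about two weeks in flats, sprayed, then kept under standard greenhouse care. Rated visually 4–5 weeks after treatment on a 0–9 scale (stand, vigour, malformation, size, chlorosis, overall appearance) relative to untreated control; repeat tests averaged.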

[7] = test system: CYPIR (Cyperus iria); assay: Flooded paddy, postemergence weed control; format: in vivo; conditions: postemergence weeds, rated 3-4 weeks after treatment
Excerpt: Results of herbicide evaluation are expressed on a rating scale (0-9). The scale is based upon a visual observation of plant stand, vigor, malformation, size, chlorosis and overall plant appearance as compared with a control.
Plastic containers containing weeds which are 3 to 5 cm tall and rice seedlings at the 1.5 to 2.5 leaf stage are flooded with water. The water is maintained at 1.5 to 3 cm above the soil surface for the duration of the experiment. Test compounds are applied as aqueous/acetone mixtures 50/50 v/v directly into the flood water to provide the equivalent of about 0.0320 to 0.2500 kg/ha of active ingredient. The treated containers are placed on greenhouse benches and cared for in accordance with conventional greenhouse procedures. Three to four weeks after treatment, the test is terminated and each container is examined and herbicidal effect rated according to the rating system provided in Example 87. The compounds evaluated are identified in Example 87 and plant species used are identified in Example 89.

[8] = test system: IPOHE (Ipomoea hederacea); assay: Preemergence herbicidal evaluation; format: in vivo, (L.) Jacq.; conditions: preemergence, rated 4-5 weeks after treatment
[9] = test system: TRZAWR (Wheat, Winter, cv Riband); assay: Preemergence herbicidal evaluation; format: in vivo, Triticum aestivum; conditions: preemergence, rated 4-5 weeks after treatment
Procedure, shortened: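 Scores (0–9) reflect visual comparison with control plants for stand, vigor, malformation, size and chlorosis. Seeds in potting soil received a post-planting spray of compound in aqueous acetone and grew in a greenhouse until assessment 4–5 weeks later.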

[10] = test system: ECHORC (Echinochloa oryzoides); assay: Flooded paddy, preemergence weed control; format: in vivo, Echinochloa oryzoides (Ard.) Fritsch.; conditions: rated 3-4 weeks after treatment, 0-9 rating scale
Procedure, shortened: as §1

[11] = test system: ECHCG (Echinochloa crus-galli); assay: Postemergence herbicidal evaluation; format: in vivo, (L.) Beau
Procedure, shortened: as §3

[12] = test system: CYPSE (Cyperus serotinus); assay: Flooded paddy, postemergence weed control; format: in vivo, Rottb.; conditions: postemergence weeds, rated 3-4 weeks after treatment
Procedure, shortened: as §2

[13] = test system: CHEAL (Chenopodium album); assay: Postemergence herbicidal evaluation; format: in vivo, L.
Procedure, shortened: as §3

[14] = test system: AMBEL (Ambrosia artemisifolia); assay: Postemergence herbicidal evaluation; format: in vivo, L.
Procedure, shortened: as §3

[15] = test system: CASOB (Cassia obtusifolia); assay: Postemergence herbicidal evaluation; format: in vivo, L.
Procedure, shortened: as §3

[16] = test system: SAGPY (Sagittaria pygmaea); assay: Flooded paddy, postemergence weed control; format: in vivo, L.; conditions: postemergence weeds, rated 3-4 weeks after treatment
Procedure, shortened: as §2

[17] = test system: ORYSAT (Rice, Tebonnet); assay: Preemergence herbicidal evaluation; format: in vivo, Oryza sativa, (L.) Tebonnet; conditions: preemergence, rated 4-5 weeks after treatment
[18] = test system: ORYSAT (Rice, Tebonnet); assay: Flooded paddy, post-transplant and postemergence rice tolerance; format: in vivo, Oryza sativa, (L.) Tebonnet; conditions: post-transplant rice, rated 3-4 weeks after treatment
Procedure, shortened: as §2

[19] = test system: ORYSAT (Rice, Tebonnet); assay: Postemergence herbicidal evaluation; format: in vivo, Oryza sativa, (L.) Tebonnet
Procedure, shortened: as §3

With `Cn1c(C(F)(F)F)cc(=O)n(-c2ccc3snc(-c4ncccn4)c3c2)c1=O` [Compound 12, 1-methyl-3-[3-(2-pyrimidinyl)-1,2-benzisothiazol-5-yl]-6-(trifluoromethyl)uracil] the “herbicidal rating, CYPIR” value ([1]; rate 0.1250 kg/ha) was 9.0, the “herbicidal rating, SAGPY” value ([2]; rate 0.1250 kg/ha) was 3.7 and the “GLXMAW preemergence herbicidal rating” value ([3]; Rate 0.2500 kg/ha) was 9.0. For the same compound, the “herbicide rating (0-9) ECHORC” value ([4]; 0.1250 kg/ha into flood water) was 1.0, the “herbicide rating (0-9) MOOVA” value ([5]; 0.1250 kg/ha into flood water) was 2.0 and the “Postemergence herbicidal rating, ZEAMX” value ([6]; rate 0.0620 kg/ha) was 5.5. For the same compound, the “herbicide rating (0-9) CYPIR” value ([7]; 0.1250 kg/ha into flood water) was 9.0, the “IPOHE preemergence herbicidal rating” value ([8]; Rate 0.2500 kg/ha) was 9.0 and the “TRZAWR preemergence herbicidal rating” value ([9]; Rate 0.2500 kg/ha) was 9.0. The “herbicidal rating, ECHORC” value ([10]; rate 0.1250 kg/ha) was 8.7, the “Postemergence herbicidal rating, ECHCG” value ([11]; rate 0.0620 kg/ha) was 4.0 and the “herbicide rating (0-9) CYPSE” value ([12]; 0.1250 kg/ha into flood water) was 0.0. The “Postemergence herbicidal rating, CHEAL” value ([13]; rate 0.0620 kg/ha) was 9.0, the “Postemergence herbicidal rating, AMBEL” value ([14]; rate 0.0620 kg/ha) was 9.0 and the “Postemergence herbicidal rating, CASOB” value ([15]; rate 0.0620 kg/ha) was 9.0. The “herbicide rating (0-9) SAGPY” value ([16]; 0.1250 kg/ha into flood water) was 0.0, the “ORYSAT preemergence herbicidal rating” value ([17]; Rate 0.2500 kg/ha) was 8.5 and the “herbicide rating (0-9) ORYSAT (rice tolerance)” value (shortened to “herbicide rating (0-9) ORYSAT”) ([18]; 0.1250 kg/ha into flood water) was 2.0. For the same compound, the “Postemergence herbicidal rating, ORYSAT” value ([19]; rate 0.0620 kg/ha) was 6.0.

In the case of `Cc1ccc(-c2nsc3ccc(-n4c(=O)cc(C(F)(F)F)n(C)c4=O)cc23)s1` [Compound 21, 1-methyl-3-[3-(5-methyl-2-thienyl)-1,2-benzisothiazol-5-yl]-6-(trifluoromethyl)uracil], the “herbicidal rating, CYPIR” value ([1]; rate 0.0080 kg/ha) is reported as 4.0, the “herbicidal rating, CYPIR” value ([1]; rate 0.0320 kg/ha) is reported as 9.0 and the “herbicidal rating, CYPIR” value ([1]; rate 0.1250 kg/ha) is reported as 9.0. For the same compound, the “herbicidal rating, SAGPY” value ([2]; rate 0.0080 kg/ha) was 0.0, the “herbicidal rating, SAGPY” value ([2]; rate 0.0320 kg/ha) was 0.0 and the “herbicidal rating, SAGPY” value ([2]; rate 0.1250 kg/ha) was 6.0. The “GLXMAW preemergence herbicidal rating” value ([3]; Rate 0.0620 kg/ha) was 0.0, the “GLXMAW preemergence herbicidal rating” value ([3]; Rate 0.1250 kg/ha) was 0.0 and the “GLXMAW preemergence herbicidal rating” value ([3]; Rate 0.2500 kg/ha) was 2.0. For the same compound, the “herbicide rating (0-9) ECHORC” value ([4]; 0.0320 kg/ha into flood water) was 6.0, the “herbicide rating (0-9) ECHORC” value ([4]; 0.0620 kg/ha into flood water) was 9.0 and the “herbicide rating (0-9) ECHORC” value ([4]; 0.1250 kg/ha into flood water) was 9.0. The “herbicide rating (0-9) MOOVA” value ([5]; 0.0320 kg/ha into flood water) was 9.0, the “herbicide rating (0-9) MOOVA” value ([5]; 0.0620 kg/ha into flood water) was 9.0 and the “herbicide rating (0-9) MOOVA” value ([5]; 0.1250 kg/ha into flood water) was 9.0. For the same compound, the “Postemergence herbicidal rating, ZEAMX” value ([6]; rate 0.0320 kg/ha) was 5.0, the “Postemergence herbicidal rating, ZEAMX” value ([6]; rate 0.0620 kg/ha) was 5.5 and the “Postemergence herbicidal rating, ZEAMX” value ([6]; rate 0.1250 kg/ha) was 5.5. For the same compound, the “herbicide rating (0-9) CYPIR” value ([7]; 0.0320 kg/ha into flood water) was 9.0, the “herbicide rating (0-9) CYPIR” value ([7]; 0.0620 kg/ha into flood water) was 9.0 and the “herbicide rating (0-9) CYPIR” value ([7]; 0.1250 kg/ha into flood water) was 9.0. For the same compound, the “IPOHE preemergence herbicidal rating” value ([8]; Rate 0.0620 kg/ha) was 0.0, the “IPOHE preemergence herbicidal rating” value ([8]; Rate 0.1250 kg/ha) was 2.0 and the “IPOHE preemergence herbicidal rating” value ([8]; Rate 0.2500 kg/ha) was 5.0. The “TRZAWR preemergence herbicidal rating” value ([9]; Rate 0.0620 kg/ha) was 0.0, the “TRZAWR preemergence herbicidal rating” value ([9]; Rate 0.1250 kg/ha) was 1.0 and the “TRZAWR preemergence herbicidal rating” value ([9]; Rate 0.2500 kg/ha) was 2.0. For the same compound, the “herbicidal rating, ECHORC” value ([10]; rate 0.0080 kg/ha) was 4.0, the “herbicidal rating, ECHORC” value ([10]; rate 0.0320 kg/ha) was 8.5 and the “herbicidal rating, ECHORC” value ([10]; rate 0.1250 kg/ha) was 9.0. The “Postemergence herbicidal rating, ECHCG” value ([11]; rate 0.0320 kg/ha) was 4.0, the “Postemergence herbicidal rating, ECHCG” value ([11]; rate 0.0620 kg/ha) was 4.0 and the “Postemergence herbicidal rating, ECHCG” value ([11]; rate 0.1250 kg/ha) was 4.0. The “herbicide rating (0-9) CYPSE” value ([12]; 0.0320 kg/ha into flood water) was 0.0, the “herbicide rating (0-9) CYPSE” value ([12]; 0.0620 kg/ha into flood water) was 0.0 and the “herbicide rating (0-9) CYPSE” value ([12]; 0.1250 kg/ha into flood water) was 0.0. For the same compound, the “Postemergence herbicidal rating, CHEAL” value ([13]; rate 0.0320 kg/ha) was 7.0, the “Postemergence herbicidal rating, CHEAL” value ([13]; rate 0.0620 kg/ha) was 9.0 and the “Postemergence herbicidal rating, CHEAL” value ([13]; rate 0.1250 kg/ha) was 9.0. For the same compound, the “Postemergence herbicidal rating, AMBEL” value ([14]; rate 0.0320 kg/ha) was 9.0, the “Postemergence herbicidal rating, AMBEL” value ([14]; rate 0.0620 kg/ha) was 9.0 and the “Postemergence herbicidal rating, AMBEL” value ([14]; rate 0.1250 kg/ha) was 9.0. The “Postemergence herbicidal rating, CASOB” value ([15]; rate 0.0320 kg/ha) was 2.0, the “Postemergence herbicidal rating, CASOB” value ([15]; rate 0.0620 kg/ha) was 4.0 and the “Postemergence herbicidal rating, CASOB” value ([15]; rate 0.1250 kg/ha) was 7.0. The “herbicide rating (0-9) SAGPY” value ([16]; 0.0320 kg/ha into flood water) was 0.0, the “herbicide rating (0-9) SAGPY” value ([16]; 0.0620 kg/ha into flood water) was 0.0 and the “herbicide rating (0-9) SAGPY” value ([16]; 0.1250 kg/ha into flood water) was 0.0. For the same compound, the “ORYSAT preemergence herbicidal rating” value ([17]; Rate 0.0620 kg/ha) was 0.0, the “ORYSAT preemergence herbicidal rating” value ([17]; Rate 0.1250 kg/ha) was 0.5 and the “ORYSAT preemergence herbicidal rating” value ([17]; Rate 0.2500 kg/ha) was 3.5. For the same compound, the “herbicide rating (0-9) ORYSAT” value ([18]; 0.0320 kg/ha into flood water) was 4.0, the “herbicide rating (0-9) ORYSAT” value ([18]; 0.0620 kg/ha into flood water) was 7.0 and the “herbicide rating (0-9) ORYSAT” value ([18]; 0.1250 kg/ha into flood water) was 7.0. The “Postemergence herbicidal rating, ORYSAT” value ([19]; rate 0.0320 kg/ha) was 4.0, the “Postemergence herbicidal rating, ORYSAT” value ([19]; rate 0.0620 kg/ha) was 3.5 and the “Postemergence herbicidal rating, ORYSAT” value ([19]; rate 0.1250 kg/ha) was 4.5.
